Laboratory results from article PMC12090182, “Repurposing of the RIPK1-Selective Benzo[1,4]oxazepin-4-one Scaffold for the Development of a Type III LIMK1/2 Inhibitor” (ACS Chemical Biology, 2025).

Columns and labels:
Experiment in all cases: biochemical
Type in all cases: binding
[1] = target: 468 kinases including some pathogenic mutants (Homo sapiens, UniProt O00141); settings: SGK (Entrez SGK1), 1000 nM; read-out: Percent Control
[2] = target: 468 kinases including some pathogenic mutants (Homo sapiens, UniProt O00444); settings: PLK4 (Entrez PLK4), 100 nM; read-out: Percent Control
[3] = target: 468 kinases including some pathogenic mutants (Homo sapiens, UniProt O00506); settings: YSK1 (Entrez STK25), 1000 nM; read-out: Percent Control
[4] = target: 468 kinases including some pathogenic mutants (Homo sapiens, UniProt O95747); settings: OSR1 (Entrez OXSR1), 100 nM; read-out: Percent Control
[5] = target: 468 kinases including some pathogenic mutants (Homo sapiens, UniProt O95819); settings: MAP4K4 (Entrez MAP4K4), 100 nM; read-out: Percent Control
[6] = target: 468 kinases including some pathogenic mutants (Homo sapiens, UniProt P00519, F317L); settings: read-out: Percent Control
[7] = target: 468 kinases including some pathogenic mutants (Homo sapiens, UniProt P00533, DEL746-750); settings: read-out: Percent Control
[8] = target: 468 kinases including some pathogenic mutants (Homo sapiens, UniProt P00533, DEL752-759); settings: read-out: Percent Control
[9] = target: 468 kinases including some pathogenic mutants (Homo sapiens, UniProt P00533, G719C); settings: read-out: Percent Control
[10] = target: 468 kinases including some pathogenic mutants (Homo sapiens, UniProt P04629); settings: TRKA (Entrez NTRK1), 100 nM; read-out: Percent Control
[11] = target: 468 kinases including some pathogenic mutants (Homo sapiens, UniProt P09619); settings: PDGFRB (Entrez PDGFRB), 100 nM; read-out: Percent Control
[12] = target: 468 kinases including some pathogenic mutants (Homo sapiens, UniProt P20794); settings: MAK (Entrez MAK), 1000 nM; read-out: Percent Control
[13] = target: 468 kinases including some pathogenic mutants (Homo sapiens, UniProt P36888, D835V); settings: read-out: Percent Control
[14] = target: 468 kinases including some pathogenic mutants (Homo sapiens, UniProt P41240); settings: CSK (Entrez CSK), 100 nM; read-out: Percent Control
[15] = target: 468 kinases including some pathogenic mutants (Homo sapiens, UniProt P49336); settings: CDK8 (Entrez CDK8), 100 nM; read-out: Percent Control
[16] = target: 468 kinases including some pathogenic mutants (Homo sapiens, UniProt P53350); settings: PLK1 (Entrez PLK1), 100 nM; read-out: Percent Control
[17] = target: 468 kinases including some pathogenic mutants (Homo sapiens, UniProt P54756); settings: EPHA5 (Entrez EPHA5), 100 nM; read-out: Percent Control
[18] = target: 468 kinases including some pathogenic mutants (Homo sapiens, UniProt Q12851); settings: MAP4K2 (Entrez MAP4K2), 100 nM; read-out: Percent Control
[19] = target: 468 kinases including some pathogenic mutants (Homo sapiens, UniProt Q14164); settings: IKK-epsilon (Entrez IKBKE), 100 nM; read-out: Percent Control
[20] = target: 468 kinases including some pathogenic mutants (Homo sapiens, UniProt Q15303); settings: ERBB4 (Entrez ERBB4), 100 nM; read-out: Percent Control
[21] = target: 468 kinases including some pathogenic mutants (Homo sapiens, UniProt Q15831); settings: LKB1 (Entrez STK11), 100 nM; read-out: Percent Control
[22] = target: 468 kinases including some pathogenic mutants (Homo sapiens, UniProt Q56UN5); settings: YSK4 (Entrez MAP3K19), 1000 nM; read-out: Percent Control
[23] = target: 468 kinases including some pathogenic mutants (Homo sapiens, UniProt Q6ZN16); settings: MAP3K15 (Entrez MAP3K15), 1000 nM; read-out: Percent Control
[24] = target: 468 kinases including some pathogenic mutants (Homo sapiens, UniProt Q8NEB9); settings: VPS34 (Entrez PIK3C3), 1000 nM; read-out: Percent Control
[25] = target: 468 kinases including some pathogenic mutants (Homo sapiens, UniProt Q96D53); settings: ADCK4 (Entrez ADCK4), 100 nM; read-out: Percent Control
[26] = target: 468 kinases including some pathogenic mutants (Homo sapiens, UniProt Q9BX84); settings: TRPM6 (Entrez TRPM6), 1000 nM; read-out: Percent Control
[27] = target: 468 kinases including some pathogenic mutants (Homo sapiens, UniProt Q9H3Y6); settings: SRMS (Entrez SRMS), 1000 nM; read-out: Percent Control
[28] = target: 468 kinases including some pathogenic mutants (Homo sapiens, UniProt Q9NWZ3); settings: IRAK4 (Entrez IRAK4), 1000 nM; read-out: Percent Control
[29] = target: 468 kinases including some pathogenic mutants (Homo sapiens, UniProt Q9UHD2); settings: TBK1 (Entrez TBK1), 100 nM; read-out: Percent Control

Chain of 468 kinases including some pathogenic mutants (Homo sapiens, UniProt Q15831) (Q15831 whole entry, change not shown): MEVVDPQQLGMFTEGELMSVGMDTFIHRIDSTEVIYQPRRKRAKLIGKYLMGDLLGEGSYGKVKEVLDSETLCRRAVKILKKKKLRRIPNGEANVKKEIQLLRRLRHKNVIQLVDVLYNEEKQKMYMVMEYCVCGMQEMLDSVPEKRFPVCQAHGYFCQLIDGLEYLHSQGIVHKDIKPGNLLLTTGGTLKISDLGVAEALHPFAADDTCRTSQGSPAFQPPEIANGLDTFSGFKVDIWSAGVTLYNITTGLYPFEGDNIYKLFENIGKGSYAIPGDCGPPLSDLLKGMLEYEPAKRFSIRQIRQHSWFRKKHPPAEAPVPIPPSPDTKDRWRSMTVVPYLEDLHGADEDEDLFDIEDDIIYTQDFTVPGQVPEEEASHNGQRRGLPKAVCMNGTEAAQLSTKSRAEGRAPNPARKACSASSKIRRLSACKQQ
Chain of 468 kinases including some pathogenic mutants (Homo sapiens, UniProt O95747) (O95747 whole entry, change not shown): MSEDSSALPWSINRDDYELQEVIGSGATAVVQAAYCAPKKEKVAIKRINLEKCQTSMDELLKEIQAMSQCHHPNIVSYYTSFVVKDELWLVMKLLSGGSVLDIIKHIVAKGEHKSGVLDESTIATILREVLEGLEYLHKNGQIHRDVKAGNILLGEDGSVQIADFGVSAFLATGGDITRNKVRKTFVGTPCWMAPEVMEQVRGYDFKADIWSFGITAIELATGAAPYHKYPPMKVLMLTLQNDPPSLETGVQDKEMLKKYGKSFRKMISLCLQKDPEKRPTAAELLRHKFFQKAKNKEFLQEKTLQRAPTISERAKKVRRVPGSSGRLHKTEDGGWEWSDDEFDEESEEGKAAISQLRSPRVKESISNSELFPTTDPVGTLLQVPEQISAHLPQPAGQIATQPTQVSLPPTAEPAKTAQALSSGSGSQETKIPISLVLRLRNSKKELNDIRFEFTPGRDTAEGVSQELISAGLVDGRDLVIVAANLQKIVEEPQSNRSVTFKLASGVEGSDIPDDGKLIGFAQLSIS
Chain of 468 kinases including some pathogenic mutants (Homo sapiens, UniProt P00519, F317L) (P00519 whole entry F317L): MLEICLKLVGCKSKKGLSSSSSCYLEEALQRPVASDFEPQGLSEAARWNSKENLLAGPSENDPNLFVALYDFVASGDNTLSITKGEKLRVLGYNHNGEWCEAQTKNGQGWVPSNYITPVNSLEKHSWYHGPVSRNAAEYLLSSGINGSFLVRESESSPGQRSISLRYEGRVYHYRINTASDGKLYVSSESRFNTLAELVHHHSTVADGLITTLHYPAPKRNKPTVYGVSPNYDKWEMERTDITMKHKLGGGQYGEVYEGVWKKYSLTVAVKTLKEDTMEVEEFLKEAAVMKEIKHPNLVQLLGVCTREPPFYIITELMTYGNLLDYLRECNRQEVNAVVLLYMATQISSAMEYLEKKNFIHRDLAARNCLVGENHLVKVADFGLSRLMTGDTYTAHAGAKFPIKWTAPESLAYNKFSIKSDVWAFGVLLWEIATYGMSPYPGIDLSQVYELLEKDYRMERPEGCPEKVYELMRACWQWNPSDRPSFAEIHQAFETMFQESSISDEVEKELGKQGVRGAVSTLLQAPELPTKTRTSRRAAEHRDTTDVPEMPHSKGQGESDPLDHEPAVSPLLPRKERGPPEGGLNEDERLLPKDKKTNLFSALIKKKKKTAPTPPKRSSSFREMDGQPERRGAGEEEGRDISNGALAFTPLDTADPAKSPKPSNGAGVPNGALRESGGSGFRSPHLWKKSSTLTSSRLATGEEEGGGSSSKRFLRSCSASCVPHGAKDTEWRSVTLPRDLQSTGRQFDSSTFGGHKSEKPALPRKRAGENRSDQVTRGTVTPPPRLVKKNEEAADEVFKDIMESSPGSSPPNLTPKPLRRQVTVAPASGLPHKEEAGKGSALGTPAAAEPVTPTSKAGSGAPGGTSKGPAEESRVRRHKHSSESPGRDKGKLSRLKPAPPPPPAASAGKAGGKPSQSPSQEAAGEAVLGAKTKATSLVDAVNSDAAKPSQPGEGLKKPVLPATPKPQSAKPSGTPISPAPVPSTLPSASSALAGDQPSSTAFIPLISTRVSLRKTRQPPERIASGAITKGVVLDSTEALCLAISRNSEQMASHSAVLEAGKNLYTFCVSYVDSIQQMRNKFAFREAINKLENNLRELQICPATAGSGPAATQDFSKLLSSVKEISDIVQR
Chain of 468 kinases including some pathogenic mutants (Homo sapiens, UniProt P09619) (P09619 33-1106, change not shown): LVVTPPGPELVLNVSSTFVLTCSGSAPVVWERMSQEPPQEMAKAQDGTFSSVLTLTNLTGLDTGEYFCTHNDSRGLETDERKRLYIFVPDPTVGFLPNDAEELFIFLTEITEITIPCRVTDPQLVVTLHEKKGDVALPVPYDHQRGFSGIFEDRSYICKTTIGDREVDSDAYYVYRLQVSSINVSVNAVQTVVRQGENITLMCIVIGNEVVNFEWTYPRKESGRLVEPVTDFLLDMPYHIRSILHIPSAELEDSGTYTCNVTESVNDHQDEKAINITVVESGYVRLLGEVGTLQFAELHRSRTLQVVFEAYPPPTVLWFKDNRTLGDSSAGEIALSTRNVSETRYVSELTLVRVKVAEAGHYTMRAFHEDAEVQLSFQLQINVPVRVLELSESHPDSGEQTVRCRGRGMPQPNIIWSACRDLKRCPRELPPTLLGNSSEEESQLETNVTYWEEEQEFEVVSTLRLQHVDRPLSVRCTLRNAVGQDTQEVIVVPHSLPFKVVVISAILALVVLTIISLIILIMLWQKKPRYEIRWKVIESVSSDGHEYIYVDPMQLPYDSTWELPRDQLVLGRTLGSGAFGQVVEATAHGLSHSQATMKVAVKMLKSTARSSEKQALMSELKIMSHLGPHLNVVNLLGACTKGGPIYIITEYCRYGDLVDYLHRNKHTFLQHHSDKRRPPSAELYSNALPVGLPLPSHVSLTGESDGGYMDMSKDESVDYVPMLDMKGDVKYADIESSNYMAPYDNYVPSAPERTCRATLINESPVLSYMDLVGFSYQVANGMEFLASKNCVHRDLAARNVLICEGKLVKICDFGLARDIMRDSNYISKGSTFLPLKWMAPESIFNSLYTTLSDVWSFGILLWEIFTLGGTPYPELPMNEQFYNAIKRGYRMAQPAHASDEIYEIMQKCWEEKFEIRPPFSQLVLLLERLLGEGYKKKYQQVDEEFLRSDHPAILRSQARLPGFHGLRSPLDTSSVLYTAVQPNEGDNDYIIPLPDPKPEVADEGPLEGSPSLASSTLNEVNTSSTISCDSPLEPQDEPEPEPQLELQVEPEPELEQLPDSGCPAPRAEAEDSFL
Chain of 468 kinases including some pathogenic mutants (Homo sapiens, UniProt P04629) (P04629 33-796, change not shown): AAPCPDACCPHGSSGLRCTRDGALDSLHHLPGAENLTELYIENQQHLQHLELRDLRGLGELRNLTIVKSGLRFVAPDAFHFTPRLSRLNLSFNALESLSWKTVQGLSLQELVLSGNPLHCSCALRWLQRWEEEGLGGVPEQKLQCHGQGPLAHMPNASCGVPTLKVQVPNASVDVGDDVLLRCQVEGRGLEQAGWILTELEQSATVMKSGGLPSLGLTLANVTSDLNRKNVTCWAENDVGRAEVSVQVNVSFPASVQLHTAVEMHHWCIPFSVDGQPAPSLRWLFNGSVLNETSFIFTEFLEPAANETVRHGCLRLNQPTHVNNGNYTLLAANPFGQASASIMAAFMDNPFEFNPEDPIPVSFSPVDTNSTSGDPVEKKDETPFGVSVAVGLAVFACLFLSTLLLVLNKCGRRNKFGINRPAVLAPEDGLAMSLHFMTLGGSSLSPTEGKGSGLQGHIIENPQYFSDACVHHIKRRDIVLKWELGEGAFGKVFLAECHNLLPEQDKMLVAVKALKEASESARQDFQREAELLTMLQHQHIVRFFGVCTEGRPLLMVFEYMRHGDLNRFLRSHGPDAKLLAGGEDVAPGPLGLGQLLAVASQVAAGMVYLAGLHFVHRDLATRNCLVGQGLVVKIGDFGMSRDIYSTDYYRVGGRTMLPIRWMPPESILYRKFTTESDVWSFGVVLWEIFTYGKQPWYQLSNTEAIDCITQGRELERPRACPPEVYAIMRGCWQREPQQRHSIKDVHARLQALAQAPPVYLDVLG
Chain of 468 kinases including some pathogenic mutants (Homo sapiens, UniProt P54756) (P54756 25-1037, change not shown): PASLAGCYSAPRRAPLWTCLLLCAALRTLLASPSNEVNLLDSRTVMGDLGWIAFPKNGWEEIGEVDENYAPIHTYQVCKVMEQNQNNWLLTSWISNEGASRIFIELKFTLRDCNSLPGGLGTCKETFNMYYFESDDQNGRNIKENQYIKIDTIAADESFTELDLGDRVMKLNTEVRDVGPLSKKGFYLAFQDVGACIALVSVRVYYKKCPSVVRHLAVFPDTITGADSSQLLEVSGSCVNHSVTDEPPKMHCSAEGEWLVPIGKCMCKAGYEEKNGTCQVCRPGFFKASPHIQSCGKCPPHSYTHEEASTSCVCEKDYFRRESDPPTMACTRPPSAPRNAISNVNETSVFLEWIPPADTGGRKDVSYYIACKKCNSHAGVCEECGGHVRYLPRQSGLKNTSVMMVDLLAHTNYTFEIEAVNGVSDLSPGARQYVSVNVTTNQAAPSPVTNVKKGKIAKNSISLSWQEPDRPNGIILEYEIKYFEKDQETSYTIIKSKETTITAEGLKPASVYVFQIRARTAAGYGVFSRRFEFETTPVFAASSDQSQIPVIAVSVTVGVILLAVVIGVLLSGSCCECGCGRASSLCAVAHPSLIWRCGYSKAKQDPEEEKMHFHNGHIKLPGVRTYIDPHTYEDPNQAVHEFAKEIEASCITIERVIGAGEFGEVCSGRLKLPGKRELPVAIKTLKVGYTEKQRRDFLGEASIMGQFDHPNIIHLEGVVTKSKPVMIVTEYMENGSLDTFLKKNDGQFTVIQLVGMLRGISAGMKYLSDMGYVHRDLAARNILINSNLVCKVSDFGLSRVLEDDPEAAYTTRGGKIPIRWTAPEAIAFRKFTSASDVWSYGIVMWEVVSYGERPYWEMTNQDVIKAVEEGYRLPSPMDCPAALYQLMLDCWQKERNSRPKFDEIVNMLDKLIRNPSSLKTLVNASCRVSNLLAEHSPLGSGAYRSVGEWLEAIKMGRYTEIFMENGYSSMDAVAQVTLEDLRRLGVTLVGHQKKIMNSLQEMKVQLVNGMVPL

Question: For `CN1C(=O)[C@@H](N2CCc3c(nn(Cc4ccccc4)c3C(N)=O)C2=O)COc2cc(Cl)ccc21` [Compound 10, (S)-2-benzyl-6-(8-chloro-5-methyl-4-oxo-2,3,4,5-tetrahydrobenzo[b][1,4]oxazepin-3-yl)-7-oxo-4,5,6,7-tetrahydro-2H-pyrazolo[3,4-c]pyridine-3-carboxamide], which remaining activity at 1 µM [1] is on record?
Answer: Its remaining activity at 1 µM is 100%.

Question: And the remaining activity at 0.1 µM [2]?
Answer: The remaining activity at 0.1 µM was 58%.

Question: And the remaining activity at 1 µM [3]?
Answer: Its remaining activity at 1 µM is 100%.

Question: And the remaining activity at 0.1 µM [4]?
Answer: The remaining activity at 0.1 µM was 100%.

Question: What about the remaining activity at 0.1 µM [5] of the same compound?
Answer: Its remaining activity at 0.1 µM is 99%.

Question: What about the remaining activity at 0.1 µM [6] of the same compound?
Answer: Its remaining activity at 0.1 µM is 88%.

Question: What about the remaining activity at 0.1 µM [7] of the same compound?
Answer: Its remaining activity at 0.1 µM is 78%.

Question: What about the remaining activity at 0.1 µM [8] of the same compound?
Answer: Its remaining activity at 0.1 µM is 100%.

Question: And the remaining activity at 0.1 µM [9]?
Answer: Its remaining activity at 0.1 µM is 100%.

Question: What about the remaining activity at 0.1 µM [10] of the same compound?
Answer: Its remaining activity at 0.1 µM is 99%.

Question: What about the remaining activity at 0.1 µM [11] of the same compound?
Answer: Its remaining activity at 0.1 µM is 69%.

Question: What about the remaining activity at 1 µM [12] of the same compound?
Answer: The remaining activity at 1 µM was 100%.

Question: And the remaining activity at 0.1 µM [13]?
Answer: Its remaining activity at 0.1 µM is 88%.

Question: And the remaining activity at 0.1 µM [14]?
Answer: Its remaining activity at 0.1 µM is 83%.

Question: And the remaining activity at 0.1 µM [15]?
Answer: Its remaining activity at 0.1 µM is 100%.

Question: And the remaining activity at 0.1 µM [16]?
Answer: The remaining activity at 0.1 µM was 68%.

Question: What about the remaining activity at 0.1 µM [17] of the same compound?
Answer: The remaining activity at 0.1 µM was 74%.

Question: What about the remaining activity at 0.1 µM [18] of the same compound?
Answer: Its remaining activity at 0.1 µM is 70%.

Question: What about the remaining activity at 0.1 µM [19] of the same compound?
Answer: The remaining activity at 0.1 µM was 61%.

Question: And the remaining activity at 0.1 µM [20]?
Answer: Its remaining activity at 0.1 µM is 79%.

Question: What about the remaining activity at 0.1 µM [21] of the same compound?
Answer: Its remaining activity at 0.1 µM is 97%.

Question: And the remaining activity at 1 µM [22]?
Answer: The remaining activity at 1 µM was 100%.

Question: What about the remaining activity at 1 µM [23] of the same compound?
Answer: Its remaining activity at 1 µM is 100%.

Question: And the remaining activity at 1 µM [24]?
Answer: The remaining activity at 1 µM was 100%.

Question: What about the remaining activity at 0.1 µM [25] of the same compound?
Answer: The remaining activity at 0.1 µM was 88%.

Question: And the remaining activity at 1 µM [26]?
Answer: The remaining activity at 1 µM was 100%.

Question: What about the remaining activity at 1 µM [27] of the same compound?
Answer: The remaining activity at 1 µM was 100%.

Question: What about the remaining activity at 1 µM [28] of the same compound?
Answer: Its remaining activity at 1 µM is 100%.

Question: And the remaining activity at 0.1 µM [29]?
Answer: Its remaining activity at 0.1 µM is 89%.
